Results taken from ChEMBL document CHEMBL1147027, “The role of fluorine substitution in the structure-activity relationships (SAR) of classical cannabinoids” (2007).

Tests used:
[1] = species on record: Mus musculus; experiment: Effect on behavioral activity in mouse assessed as spontaneous activity by tetrad test; type: functional
[2] = species on record: Mus musculus; experiment: Effect on behavioral activity in mouse assessed as tail flick by tetrad test; type: functional
[3] = species on record: Mus musculus; experiment: Effect on behavioral activity in mouse assessed as rectal temperature by tetrad test; type: functional
[4] = biological target: Cannabinoid receptor 1 (Homo sapiens) (UniProt P21554); experiment: Binding affinity to CB1 receptor
Sequence of Cannabinoid receptor 1 (Homo sapiens) (P21554 whole entry): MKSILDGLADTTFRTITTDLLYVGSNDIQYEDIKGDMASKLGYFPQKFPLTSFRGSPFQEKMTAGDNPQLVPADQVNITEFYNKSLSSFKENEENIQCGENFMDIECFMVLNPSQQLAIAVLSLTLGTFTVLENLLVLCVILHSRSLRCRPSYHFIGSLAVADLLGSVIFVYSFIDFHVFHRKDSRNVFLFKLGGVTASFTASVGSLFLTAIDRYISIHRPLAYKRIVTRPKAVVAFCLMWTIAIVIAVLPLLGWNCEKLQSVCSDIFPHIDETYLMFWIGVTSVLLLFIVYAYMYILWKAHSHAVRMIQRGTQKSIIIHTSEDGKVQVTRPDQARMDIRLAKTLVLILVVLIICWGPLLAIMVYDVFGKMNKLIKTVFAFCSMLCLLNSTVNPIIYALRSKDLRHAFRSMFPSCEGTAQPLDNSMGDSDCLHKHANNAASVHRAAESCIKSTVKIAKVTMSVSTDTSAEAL

[5] = tested on: Mus musculus; experiment: Effect on behavioral activity in intrathecally dosed mouse assessed as tail flick by tetrad test; type: functional
[6] = tested on: Mus musculus; experiment: Effect on behavioral activity in mouse assessed as spontaneous activity by tetrad test at 30 mg/kg; type: functional
[7] = tested on: Mus musculus; experiment: Effect on behavioral activity in mouse assessed as tail flick by tetrad test at 30 mg/kg; type: functional
[8] = tested on: Mus musculus; experiment: Effect on behavioral activity in mouse assessed as rectal temperature by tetrad test at 30 mg/kg; type: functional
[9] = biological target: Cannabinoid receptor 2 (Homo sapiens) (UniProt P34972); experiment: Binding affinity to CB2 receptor
Sequence of Cannabinoid receptor 2 (Homo sapiens) (P34972 whole entry): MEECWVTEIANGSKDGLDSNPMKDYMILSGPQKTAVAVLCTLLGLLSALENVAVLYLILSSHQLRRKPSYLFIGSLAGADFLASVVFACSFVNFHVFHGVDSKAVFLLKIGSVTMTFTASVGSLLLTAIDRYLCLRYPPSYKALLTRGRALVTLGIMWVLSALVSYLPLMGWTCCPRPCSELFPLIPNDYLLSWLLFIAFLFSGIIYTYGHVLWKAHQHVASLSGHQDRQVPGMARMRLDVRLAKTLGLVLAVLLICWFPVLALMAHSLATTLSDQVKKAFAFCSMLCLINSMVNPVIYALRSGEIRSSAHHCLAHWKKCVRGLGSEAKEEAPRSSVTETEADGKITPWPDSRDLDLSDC

[10] = tested on: Mus musculus; experiment: Effect on behavioral activity in intrathecally dosed mouse assessed as tail flick by tetrad test at 100 mg/kg; type: functional

SMILES	ED50 [1]	ED50 [2]	ED50 [3]	Activity [4]	Activity [5]	Activity [6]	Activity [7]	Activity [8]	Activity [9]	Activity [10]
CCCCCC#Cc1cc(O)c2c(c1)OC(C)(C)[C@@H]1CC=C(C)C[C@@H]21	3.68 mg/kg	3.24 mg/kg	2.96 mg/kg	36 nM						
CCCCCc1cc(O)c2c(c1)OC(C)(C)[C@@H]1CCC(C)=C[C@@H]21 [DRONABINOL]	1 mg/kg	1.4 mg/kg	1.4 mg/kg		29 µg					
CCCCCC#Cc1cc(F)c2c(c1)OC(C)(C)[C@@H]1CC=C(C)C[C@@H]21				> 10000 nM	156.9 µg	8%	4%	-2.2 °C	> 4550 nM	
CCCCCCCc1cc(F)c2c(c1)OC(C)(C)[C@@H]1CC=C(C)C[C@@H]21	31.1 mg/kg	21.5 mg/kg	6.9 mg/kg	1560 nM					1510 nM	36%
CCCCC/C=C/c1cc(F)c2c(c1)OC(C)(C)[C@@H]1CC=C(C)C[C@@H]21				285 nM					40 nM	
CCCCC/C=C/c1cc(O)c2c(c1)OC(C)(C)[C@@H]1CC=C(C)C[C@@H]21	0.09 mg/kg	0.09 mg/kg	0.13 mg/kg	0.86 nM						
